In brackets after ≈: the same amount, converted by molar mass.

The subject of test [1] is Mycobacterium tuberculosis. The test is described as follows: Antitubercular activity against isoniazid-resistant Mycobacterium tuberculosis ATCC 35822 harboring Ser-315-Tri mutation in katG gene after 9 days by resazurin reduction assay. It is filed as functional.
For test [2], the system named is Mycobacterium tuberculosis. The test is described as follows: Antitubercular activity against rifampicin-resistant Mycobacterium tuberculosis ATCC 35338 harboring His-526-Tri mutation in rpoB gene after 9 days by resazurin reduction assay. It is filed as functional. (Resazurin is reduced to fluorescent resorufin, in cell work by metabolically active cells.)

A word on the MIC: it is the lowest concentration found to suppress growth. A lower MIC goes with greater potency. Regarding `CC(C)CCC1=C(O)C(=O)C2=C(CCCC2)C1=O`, the figures for the MIC in test [1] and in test [2] were 100.8 µM (≈ 25 µg/mL) and 50.4 µM (≈ 12.5 µg/mL), respectively.

`CC(C)=Cc1c2[nH]c3ccccc3nc-2c2ccccc2c1=O`: the MIC in test [1] and in test [2] was 83.3 µM (≈ 25 µg/mL) each time.

With `C=CCC1=C(OC2(CC=C)C(=O)c3ccccc3-c3nc4ccccc4nc32)C(=O)c2ccccc2C1=O` (stereo not drawn), the MIC in test [1] and in test [2] was greater than 200.8 µM in each case.

For `CCCC1=C(OC2(CCC)C(=O)C3=C(CCCC3)c3nc4ccccc4nc32)C(=O)C2=C(CCCC2)C1=O` (stereo not drawn), the MIC in test [1] was greater than 195.7 µM; in test [2], 195.7 µM (≈ 99.9 µg/mL).

Regarding `CC(C)CC1=C(O)C(=O)C2=C(CCCC2)C1=O`, the results for the MIC in test [1] and in test [2] were 106.7 µM (≈ 25 µg/mL) and 53.35 µM (≈ 12.5 µg/mL), respectively.

As for `NNC(=O)c1ccncc1` [ISONIAZID], in test [1], the MIC was determined as 1.45 µM (≈ 0.199 µg/mL). This counts as single-digit micromolar.

For the compound `CCCC1=C(OC2(CCC)C(=O)c3ccccc3-c3nc4ccccc4nc32)C(=O)c2ccccc2C1=O` (stereo not drawn), the MIC in test [1] and in test [2] was greater than 198.8 µM throughout.

As to `CC(C)CC1=C(OC2(CC(C)C)C(=O)c3ccccc3-c3nc4ccccc4nc32)C(=O)c2ccccc2C1=O` (stereo not drawn), the MIC in test [1] and in test [2] was greater than 188.3 µM in each case.

In the case of `CC(C)=CCC1=C(OC2(CC=C(C)C)C(=O)c3ccccc3-c3nc4ccccc4nc32)C(=O)c2ccccc2C1=O` (stereo not drawn), the MIC in test [1] is greater than 180.2 µM; in test [2], 180.2 µM (≈ 99.9 µg/mL).

Turning to `C=CCc1c2[nH]c3ccccc3nc-2c2ccccc2c1=O`, the MIC in test [1] was 43.7 µM (≈ 12.5 µg/mL); in test [2] it was 174.8 µM (≈ 50.1 µg/mL).

Take `CC(C)=CC1=C(O)C(=O)c2ccccc2C1=O`: the MIC in test [1] stood at 438.6 µM (≈ 100 µg/mL); in test [2] it was 13.7 µM (≈ 3.13 µg/mL).

Turning to `CCCC1=C(O)C(=O)c2ccccc2C1=O`, the MIC in test [1] was found to be 462.5 µM (≈ 100 µg/mL); in test [2], 231.25 µM (≈ 50 µg/mL).

As to `CC(C)CC1=C(O)C(=O)c2ccccc2C1=O`, the MIC came to 217.4 µM (≈ 50.1 µg/mL) in test [1] and 108.7 µM (≈ 25 µg/mL) in test [2].

`CC(C)CCC1=C(OC2(CCC(C)C)C(=O)C3=C(CCCC3)c3nc4ccccc4nc32)C(=O)C2=C(CCCC2)C1=O` (stereo not drawn): the values for the MIC in test [1] and in test [2] were greater than 176.4 µM and 176.4 µM (≈ 100 µg/mL), respectively.

With `CC(C)CCc1c2[nH]c3ccccc3nc-2c2c(c1=O)CCCC2`, the MIC is greater than 312.5 µM in test [1] and 39.1 µM (≈ 12.5 µg/mL) in test [2].

For `CCCC1=C(O)C(=O)C2=C(CCCC2)C1=O`, the MIC in test [1] and in test [2] was 113.5 µM (≈ 25 µg/mL) each time.

Take `CC(C)CCC1=C(OC2(CCC(C)C)C(=O)c3ccccc3-c3nc4ccccc4nc32)C(=O)c2ccccc2C1=O` (stereo not drawn): the MIC in test [1] and in test [2] was greater than 178.9 µM in each case.

In the case of `CC(C)=CCC1=C(O)C(=O)c2ccccc2C1=O` [LAPACHOL], the MIC in test [1] came out at 413.2 µM (≈ 100 µg/mL); in test [2], 206.6 µM (≈ 50.1 µg/mL).

Turning to `C=CCC1=C(O)C(=O)c2ccccc2C1=O`, the MIC in test [1] amounted to 467.3 µM (≈ 100 µg/mL); in test [2] it was 116.8 µM (≈ 25 µg/mL).

As for `CC(C)Cc1c2[nH]c3ccccc3nc-2c2ccccc2c1=O`, the MIC in test [1] and in test [2] was greater than 331.1 µM each time.

Regarding `CC(C)CC1=C(OC2(CC(C)C)C(=O)C3=C(CCCC3)c3nc4ccccc4nc32)C(=O)C2=C(CCCC2)C1=O` (stereo not drawn), the MIC in test [1] and in test [2] was 46.4 µM (≈ 25 µg/mL) in each case.

The compound `CO[C@H]1/C=C/O[C@@]2(C)Oc3c(C)c(O)c4c(O)c(c(/C=N/N5CCN(C)CC5)c(O)c4c3C2=O)NC(=O)/C(C)=C\C=C\[C@H](C)[C@H](O)[C@@H](C)[C@@H](O)[C@@H](C)[C@H](OC(C)=O)[C@@H]1C` [RIFAMPIN] gave an MIC in test [2] of 2.43 µM (≈ 2 µg/mL). This counts as single-digit micromolar.

With `CC(C)CCc1c2[nH]c3ccccc3nc-2c2ccccc2c1=O`, the MIC in test [1] and in test [2] was 39.5 µM (≈ 12.5 µg/mL) throughout.

Regarding `CC(C)CCC1=C(O)C(=O)c2ccccc2C1=O`, the MIC in test [1] and in test [2] was 205 µM (≈ 50.1 µg/mL) in each case.

On to `CC(C)Cc1c2[nH]c3ccccc3nc-2c2c(c1=O)CCCC2`, for which the MIC in test [1] and in test [2] was greater than 326.8 µM in each case.
